The first series relates to SLC16A11. The series is described as follows: Compound treatment, SLC16A11 expression by ddPCR in SNU761 cells. The format is cell-based, human. The conditions noted are these: SNU761 cells; same doses and treatment times as in the LINCS dataset. How it is done:
A small number of the compounds that made the strongest positive connections to the SLC16A11 gene expression signature were selected and tested. […] Methotrexate was also included, which had been annotated as a dihydrofolate reductase inhibitor. SNU761 cells (derived from a human hepatocellular carcinoma) and NCIH716 cells (derived from a human cecum adenocarcinoma), which both express SLC16A11, were treated with the compounds. The same compound concentrations and treatment times were used as in the LINCS dataset experiments. […] For normalization, a different housekeeper gene, HPRT1, was used and obtained similar results with the mTOR inhibitors (FIGS. 14A and 14B).
From the total list of compounds, 59 readily available compounds were selected from the 79 compounds with the largest connectivity scores to the query signature and 20 middle compounds with connectivity scores centered on 0 (FIG. 15A) and then treated SNU761 cells at the same doses and treatment times as were used in the LINCS dataset. It was expected that the top compounds would be enriched for compounds that increased SLC16A11 expression. […] The results were aligned with the expectations (FIG. 15B). Hierarchical clustering of the SLC16 expression profiles generated by the compound treatments are shown by the heat map in FIG. 15C.
SNU761 (human hepatocellular carcinoma) and NCIH716 (human cecum adenocarcinoma) were cultured in RPMI Medium 1640 supplemented with 10% Fetal Bovine Serum (FBS), 100 μg/ml Streptomycin and 100 U/ml Penicillin. Cells were grown in a humidified CO2 incubator, at 37° C.
For the unbiased approach taken to investigate the compounds that connected to the SLC16A11 gene expression signature, compounds were obtained from compound management at the Broad Institute.
SNU761 and NCIH716 cells were plated into 96 well plates at a density of 20,000 cells per well. Hepatocytes were plated into collagen coated 96 well plates (Corning, 354408) at a density of 50,000 cells per well. After 24 hours, cells were treated with compounds at a final concentration of 10 μM or vehicle control for the appropriate amount of time.
At the time of collection, cells in 96 well plates were lysed by directly adding 50 μL of RLT buffer (Qiagen). 75 μL of AMPure XP beads, diluted by a factor of 5 in polyethylene glycol, were then added to bind nucleic acids. One wash with polyethylene glycol was then performed. DNase treatment (Qiagen) was carried out according to the manufacturer's protocol in a final volume of 50 μL. 100 μL of polyethylene glycol was added after the DNase treatment to crowd nucleic acids back onto the beads. Two washes with 80% ethanol were performed and residual ethanol was removed. RNA was then eluted in water.
RNA was DNase treated and converted into cDNA using the High-Capacity RNA-to-cDNA kit (Thermo Fisher Scientific). The following FAM-labeled TaqMan Real-Time PCR assays (Thermo Fisher Scientific) were used to quantify gene expression: SLC16A11 (Hs00601062_g1), SLC16A13 (Hs00416832_m1), SLC16A1 (Hs01560299_m1). The VIC-labeled TaqMan Real-Time assays TBP (Hs00427620_m1) or HPRT1 (Hs02800695_m1) were used for normalization. Droplets were generated and analyzed using a QX200 Droplet Generator and Reader system (BioRad). Data was extracted using QuantaSoft (BioRad) and analyzed using Microsoft Excel.
Consider `Nc1nc(Cl)nc2c1ncn2[C@H]1C[C@H](O)[C@@H](CO)O1` [cladribine], for which the “avg_fc (SLC16A11 expression, compound treated vs DMSO treated cells)” value worked out at 0.5994.

As for `CN1CCN(C2=Nc3cc(Cl)ccc3Nc3ccccc32)CC1` [clozapine], the “avg_fc (SLC16A11 expression, compound treated vs DMSO treated cells)” value amounted to 0.9466. Still for that read-out and setting: in the case of `C[C@@H]1C[C@@H]([C@H](O)CC2CC(=O)NC(=O)C2)C(=O)[C@@H](C)C1` [cycloheximide] it was 1.243; in that of `CO[C@H]1C[C@@H]2CC[C@@H](C)[C@@](O)(O2)C(=O)C(=O)N2CCCC[C@H]2C(=O)O[C@H]([C@H](C)C[C@@H]2CC[C@@H](OP(C)(C)=O)[C@H](OC)C2)CC(=O)[C@H](C)/C=C(\C)[C@@H](O)[C@@H](OC)C(=O)[C@H](C)C[C@H](C)/C=C/C=C/C=C/1C` [deforolimus, reference compound], 1.903. Same read-out and setting: to `C[C@H]1O[C@@H](O[C@H]2[C@@H](O)C[C@H](O[C@H]3[C@@H](O)C[C@H](O[C@H]4CC[C@@]5(C)[C@H](CC[C@@H]6[C@@H]5CC[C@]5(C)[C@@H](C7=CC(=O)OC7)CC[C@]65O)C4)O[C@@H]3C)O[C@@H]2C)C[C@H](O)[C@@H]1O` [digitoxin] belongs 1.375; to `Clc1ccc(COC(Cn2ccnc2)c2ccc(Cl)cc2Cl)cc1` (centres unmarked) [econazole], 1.178; to `O=C1OC2(c3ccccc31)c1cc(I)c(O)c(I)c1Oc1c2cc(I)c(O)c1I` [erythrosine], 0.649. Still for that read-out and setting: to `COc1cc(Nc2ncc(F)c(Nc3ccc4c(n3)N(COP(=O)(O)O)C(=O)C(C)(C)O4)n2)cc(OC)c1OC` [fostamatinib] belongs 3.274; to `COc1ccc2ccc(=O)oc2c1` [herniarin], 0.9563. Consider `O=C1N(c2ccccc2)c2ccccc2C1(Cc1ccncc1)Cc1ccncc1` [linopirdine], for which the “avg_fc (SLC16A11 expression, compound treated vs DMSO treated cells)” value came to 0.8629. For the compound `Cc1cnc(NC(=O)C2=C(O)c3ccccc3S(=O)(=O)N2C)s1` [meloxicam], the “avg_fc (SLC16A11 expression, compound treated vs DMSO treated cells)” value amounted to 0.9414. For `O=C1CC[C@@]2(O)[C@H]3Cc4ccc(O)c5c4[C@@]2(CCN3CC2CC2)[C@H]1O5` [naltrexone], the “avg_fc (SLC16A11 expression, compound treated vs DMSO treated cells)” value turned out to be 1.183.

`COc1ccc(-c2cc(=O)c3c(OC)c(OC)c(OC)c(OC)c3o2)cc1OC` [nobiletin]: the “avg_fc (SLC16A11 expression, compound treated vs DMSO treated cells)” value amounted to 1.129. The same measure, in the same setting: to `CC[C@@H]1C(=O)OC[C@@H]1Cc1cncn1C` [pilocarpine] belongs 0.7379; to `OCCOCCN1CCN(C2=Nc3ccccc3Sc3ccccc32)CC1` [quetiapine], 1.019; to `COc1ccccc1OCC(O)CN1CCN(CC(=O)Nc2c(C)cccc2C)CC1` (centres unmarked) [ranolazine], 0.7654. Consider `CO[C@H]1C[C@@H]2CC[C@@H](C)[C@@](O)(O2)C(=O)C(=O)N2CCCC[C@H]2C(=O)O[C@H]([C@H](C)C[C@@H]2CC[C@@H](O)[C@H](OC)C2)CC(=O)[C@H](C)/C=C(\C)[C@@H](O)[C@@H](OC)C(=O)[C@H](C)C[C@H](C)/C=C/C=C/C=C/1C` [rapamycin, reference compound], for which the “avg_fc (SLC16A11 expression, compound treated vs DMSO treated cells)” value was found to be 1.662.

Turning to `c1nc2nc(Nc3ccc(N4CCOCC4)cc3)nc(NC3CCCCC3)c2[nH]1` [reversine], the “avg_fc (SLC16A11 expression, compound treated vs DMSO treated cells)” value is recorded as 3.235.

Turning to `Cn1cnc2c(F)c(Nc3ccc(Br)cc3Cl)c(C(=O)NOCCO)cc21` [selumetinib], the “avg_fc (SLC16A11 expression, compound treated vs DMSO treated cells)” value amounted to 1.964. Same read-out and setting: in the case of `c1ccc2c(CCNc3ccc(Nc4ccncc4)cc3)c[nH]c2c1` [serdemetan] it was 0.6384; in that of `CO[C@H]1C[C@@H]2CC[C@@H](C)[C@@](O)(O2)C(=O)C(=O)N2CCCC[C@H]2C(=O)O[C@H]([C@H](C)C[C@@H]2CC[C@@H](OC(=O)C(C)(CO)CO)[C@H](OC)C2)CC(=O)[C@H](C)/C=C(\C)[C@@H](O)[C@@H](OC)C(=O)[C@H](C)C[C@H](C)/C=C/C=C/C=C/1C` [temsirolimus], 1.372; in that of `COc1cc2nccc(Oc3ccc(NC(=O)Nc4cc(C)on4)c(Cl)c3)c2cc1OC` [tivozanib], 1.647. The same measure, in the same setting: to `CCC(=O)N1CCN(c2ccc(-n3c(=O)ccc4cnc5ccc(-c6cnc7ccccc7c6)cc5c43)cc2C(F)(F)F)CC1` [torin-1] belongs 2.84; to `Nc1ccc(-c2ccc3ncc4ccc(=O)n(-c5cccc(C(F)(F)F)c5)c4c3c2)cn1` [torin-2], 2.843; to `N#CC(C#N)=C(N)/C(C#N)=C/c1ccc(O)cc1` [tyrphostin-AG-112], 0.7594.

On to `Cc1onc(-c2ccccc2)c1-c1ccc(S(N)(=O)=O)cc1` [valdecoxib], for which the “avg_fc (SLC16A11 expression, compound treated vs DMSO treated cells)” value is on record as 1.069. On the same count and under the same terms, to `CCCS(=O)(=O)Nc1ccc(F)c(C(=O)c2c[nH]c3ncc(-c4ccc(Cl)cc4)cc23)c1F` [vemurafenib] belongs 1.368; to `Nc1ccn([C@H]2CC[C@@H](CO)O2)c(=O)n1` [zalcitabine], 1.01. Take bisindolylmaleimide: the “avg_fc (SLC16A11 expression, compound treated vs DMSO treated cells)” value stood at 0.4265.

Another series concerns SLC16A11. The series can be described thus: CRISPR (SAM) transactivation assay, SLC16A11 expression in 293T cells. The series is classed as cell-based, human. The conditions noted are these: Cas9-based transactivators (SAM) targeted near variant. An excerpt: These experiments are based upon Cas9 based transactivators (SAM or synergistic activation mediators) as described in Konermann et al (Nature 517: 583-588, 2015). Similar experiments based on other types of transactivators that are more finely tuned to distal activation such as those described in Hilton et al. (Nature 33:510-518, 2015) could also be envisioned. Cas9 was used to target transactivators to sites near individual variants in the credible set. Their ability to activate SLC16A11 gene expression was assessed (Table 10).
Cell lines derived from HEK293-T cells were established by lentivirus infection resulting in stable integration of two components of the SAM system namely dCas9-VP64 and MS2-p65-HSF1. The resulting stable cell lines were then plated into 96 well plates and left overnight. The next day, cells were transfected with the guide RNAs (pHKO23), the final component of the SAM system. After an additional 48 hours, cells were harvested for gene expression analyses.
In the case of “ACGGAAACTGGCGCGCTCCA (chemistry not given here)”, the “Increases SLC16A11 transcript levels in transactivator assay” value (“Increases SLC16A11 transcript levels” for short) is “TRUE”. Still for that read-out and setting: to “CTATTTCCACGCGTTGGCGG (chemistry not given here)” belongs “TRUE”; to “GCGGGATTTAGGCATTGTTG (chemistry not given here)”, “TRUE”; to “GGCTGCGTGTTAGTGGCTTC (chemistry not given here)”, “TRUE”. Regarding “GTACATAATTCAATCCCCGT (chemistry not given here)”, the “Increases SLC16A11 transcript levels” value was “TRUE”. Still for that read-out and setting: in the case of “TCACGCGCGGCTTGCCGGAT (chemistry not given here)” it was “TRUE”; in that of “TGGCAGTCCCCGCGTCACGT (chemistry not given here)”, “TRUE”; in that of “TGGCTCTGGGTGCTGAAACG (chemistry not given here)”, “TRUE”. On the same count and under the same terms, in the case of “TGTTCTCAGGAACGTTGCCG (chemistry not given here)” it was “TRUE”. As to “TTACAGGCTTGCACCGCGCC (chemistry not given here)”, the “Increases SLC16A11 transcript levels” value is reported as “TRUE”.

For the compound “rs191133 (guide 1 TGAAAGTAAGTCAATCATGG; guide 2 ATGATTGACTTACTTTCATC; listed as DNA, chemistry not given here; listed as Homo sapiens)”, the “Increases SLC16A11 transcript levels” value is “FALSE”. Same read-out and setting: in the case of “rs193399 (guide 1 TAGAACCAGCTTCTAGGTTC; guide 2 TCCTTCCTGAACCTAGAAGC; listed as DNA, chemistry not given here; listed as Homo sapiens)” it was “FALSE”.
